Values after ≈ are worked out from the molar mass of the structure shown.
Key:
Assay in all cases: in vitro antibacterial activity (MIC), agar dilution
Type in all cases: cell-based
[1] = tested on: Escherichia coli SS; settings: organism code RR; BHI agar, 35-37° C., 20 to 24 hours; unit assumed
Description: (§1) Representative compounds of the present invention were assayed in vitro for antibacterial activity as follows: Twelve petri dishes containing successive aqueous dilutions of the test compound mixed with 10 mL of sterilized Brain Heart Infusion (BHI) agar (Difco 0418-01-5) were prepared. Each plate was inoculated with 1:100 (or 1:10 for slow-growing strains, such as Micrococcus and Streptococcus) dilutions of up to 32 different microorganisms, using a Steers replicator block. […] In addition, a control plate, using BHI agar containing no test compound, was prepared and incubated at the beginning and end of each test.
(§2) An additional plate containing a compound having known susceptibility patterns for the organisms being tested and belonging to the same antibiotic class as the test compound was also prepared and incubated as a further control, as well as to provide test-to-test comparability.
(§3) After incubation, each plate was visually inspected. The minimum inhibitory concentration (MIC) was defined as the lowest concentration of drug yielding no growth, a slight haze, or sparsely isolated colonies on the inoculum spot as compared to the growth control.

[2] = tested on: Streptococcus Pneumonia 5979; settings: organism code ZZ; BHI agar, 35-37° C., 20 to 24 hours; unit assumed
Description: as §1, §2, §3

[3] = tested on: Staphylococcus aureus CMX 642A; settings: organism code DD; BHI agar, 35-37° C., 20 to 24 hours; unit assumed
Description: as §1, §2, §3

[4] = tested on: Streptococcus agalactiae CMX 508; settings: organism code KK; BHI agar, 35-37° C., 20 to 24 hours; unit assumed
Description: as §1, §2, §3

[5] = tested on: Staphylococcus aureus 1775; settings: organism code GG; BHI agar, 35-37° C., 20 to 24 hours; unit assumed
Description: as §1, §2, §3

[6] = tested on: Streptococcus Pneumonia GYR 1171; settings: organism code YY; BHI agar, 35-37° C., 20 to 24 hours; unit assumed
Description: as §1, §2, §3

[7] = tested on: Staphylococcus aureus A5177; settings: organism code BB; BHI agar, 35-37° C., 20 to 24 hours; unit assumed
Description: as §1, §2, §3

[8] = tested on: Staphylococcus aureus ATCC 6538P; settings: organism code AA; BHI agar, 35-37° C., 20 to 24 hours; unit assumed
Description: as §1, §2, §3

[9] = tested on: Enterococcus faecium ATCC 8043; settings: organism code II; BHI agar, 35-37° C., 20 to 24 hours; unit assumed
Description: as §1, §2, §3

[10] = tested on: Escherichia coli DC-2; settings: organism code SS; BHI agar, 35-37° C., 20 to 24 hours; unit assumed
Description: as §1, §2, §3

[11] = tested on: Staphylococcus aureus NCTC10649M; settings: organism code EE; BHI agar, 35-37° C., 20 to 24 hours; unit assumed
Description: as §1, §2, §3

[12] = tested on: Staphylococcus aureus A-5278; settings: organism code CC; BHI agar, 35-37° C., 20 to 24 hours; unit assumed
Description: as §1, §2, §3

[13] = tested on: Candida albicans CCH 442; settings: organism code TT; BHI agar, 35-37° C., 20 to 24 hours; unit assumed
Description: as §1, §2, §3

[14] = tested on: Streptococcus Pneumonia ATCC6303; settings: organism code XX; BHI agar, 35-37° C., 20 to 24 hours; unit assumed
Description: as §1, §2, §3

[15] = tested on: Mycobacterium smegmatis ATCC 114; settings: organism code UU; BHI agar, 35-37° C., 20 to 24 hours; unit assumed
Description: as §1, §2, §3

[16] = tested on: Escherichia coli JUHL; settings: organism code QQ; BHI agar, 35-37° C., 20 to 24 hours; unit assumed
Description: as §1, §2, §3

[17] = tested on: Micrococcus luteus ATCC 4698; settings: organism code PP; BHI agar, 35-37° C., 20 to 24 hours; unit assumed
Description: as §1, §2, §3

[18] = tested on: Streptococcus bovis A-5169; settings: organism code JJ; BHI agar, 35-37° C., 20 to 24 hours; unit assumed
Description: as §1, §2, §3

[19] = tested on: Nocardia Asteroides ATCC9970; settings: organism code VV; BHI agar, 35-37° C., 20 to 24 hours; unit assumed
Description: as §1, §2, §3

[20] = tested on: Staphylococcus epidermidis 3519; settings: organism code HH; BHI agar, 35-37° C., 20 to 24 hours; unit assumed
Description: as §1, §2, §3

[21] = tested on: Micrococcus luteus ATCC 9341; settings: organism code OO; BHI agar, 35-37° C., 20 to 24 hours; unit assumed
Description: as §1, §2, §3

[22] = tested on: Streptococcus pyogenes EES61; settings: organism code LL; BHI agar, 35-37° C., 20 to 24 hours; unit assumed
Description: as §1, §2, §3

[23] = tested on: Streptococcus pyogenes PIU 2548; settings: organism code NN; BHI agar, 35-37° C., 20 to 24 hours; unit assumed
Description: as §1, §2, §3

[24] = tested on: Streptococcus Pneumonia 5649; settings: organism code ZZA; BHI agar, 35-37° C., 20 to 24 hours; unit assumed
Description: as §1, §2, §3

[25] = tested on: Staphylococcus aureus CMX 553; settings: organism code FF; BHI agar, 35-37° C., 20 to 24 hours; unit assumed
Description: as §1, §2, §3

[26] = tested on: Haemophilis Influenzae DILL AMP R; settings: organism code WW; BHI agar, 35-37° C., 20 to 24 hours; unit assumed
Description: as §1, §2, §3

[27] = tested on: Streptococcus pyogenes 930; settings: organism code MM; BHI agar, 35-37° C., 20 to 24 hours; unit assumed
Description: as §1, §2, §3

SMILES | MIC [1] [µg/mL] | MIC [2] [µg/mL] | MIC [3] [µg/mL] | MIC [4] [µg/mL] | MIC [5] [µg/mL] | MIC [6] [µg/mL] | MIC [7] [µg/mL] | MIC [8] [µg/mL] | MIC [9] [µg/mL] | MIC [10] [µg/mL] | MIC [11] [µg/mL] | MIC [12] [µg/mL] | MIC [13] [µg/mL] | MIC [14] [µg/mL] | MIC [15] [µg/mL] | MIC [16] [µg/mL] | MIC [17] [µg/mL] | MIC [18] [µg/mL] | MIC [19] [µg/mL] | MIC [20] [µg/mL] | further results
CC[C@H]1OC(=O)[C@H](C)C(=O)[C@H](C)[C@@H](O[C@@H]2O[C@H](C)C[C@H](N(C)C)[C@H]2O)[C@](C)(OC/C=C/c2ccc(-c3ccco3)s2)C[C@@H](C)C(=O)[C@H](C)[C@H]2NC(=O)O[C@@]21C [Example 77] | 0.39 (≈ 0.496 µM) | 16 (≈ 20.3 µM) | 0.1 (≈ 0.127 µM) | 0.02 (≈ 0.0254 µM) | 100 (≈ 127 µM) | ≤ 0.004 | 0.1 (≈ 0.127 µM) | 0.1 (≈ 0.127 µM) | 0.05 (≈ 0.0635 µM) | 50 (≈ 63.5 µM) | 0.1 (≈ 0.127 µM) | 100 (≈ 127 µM) | > 100 | ≤ 0.004 | 0.78 (≈ 0.991 µM) | 50 (≈ 63.5 µM) | 0.2 (≈ 0.254 µM) | 0.01 (≈ 0.0127 µM) | 0.2 (≈ 0.254 µM) | 0.1 (≈ 0.127 µM) | MIC [21]: 0.02 µg/mL (≈ 0.0254 µM); MIC [22]: 0.05 µg/mL (≈ 0.0635 µM); MIC [23]: 0.2 µg/mL (≈ 0.254 µM); MIC [24]: 0.25 µg/mL (≈ 0.318 µM); MIC [25]: 0.1 µg/mL (≈ 0.127 µM); MIC [26]: 8 µg/mL (≈ 10.2 µM); MIC [27]: 12.5 µg/mL (≈ 15.9 µM)
CC[C@H]1OC(=O)[C@H](C)C(=O)[C@H](C)[C@@H](O[C@@H]2O[C@H](C)C[C@H](N(C)C)[C@H]2O)[C@](C)(OC/C=C/c2ccc(-c3cnccn3)s2)C[C@@H](C)C(=O)[C@H](C)[C@H]2NC(=O)O[C@@]21C [Example 62] | 0.2 (≈ 0.25 µM) | 2 (≈ 2.5 µM) | 0.05 (≈ 0.0626 µM) | ≤ 0.005 | > 100 | ≤ 0.004 | 0.05 (≈ 0.0626 µM) | 0.05 (≈ 0.0626 µM) | 0.02 (≈ 0.025 µM) | 25 (≈ 31.3 µM) | 0.02 (≈ 0.025 µM) | > 100 | > 100 | ≤ 0.004 | 0.78 (≈ 0.976 µM) | 50 (≈ 62.6 µM) | 0.05 (≈ 0.0626 µM) | ≤ 0.005 | ≤ 0.005 | 0.05 (≈ 0.0626 µM) | MIC [21]: ≤ 0.005 µg/mL; MIC [22]: ≤ 0.005 µg/mL; MIC [23]: 0.1 µg/mL (≈ 0.125 µM); MIC [24]: 0.03 µg/mL (≈ 0.0375 µM); MIC [25]: 0.02 µg/mL (≈ 0.025 µM); MIC [26]: 2 µg/mL (≈ 2.5 µM); MIC [27]: 3.1 µg/mL (≈ 3.88 µM)
CC[C@H]1OC(=O)[C@H](C)C(=O)[C@H](C)[C@@H](O[C@@H]2O[C@H](C)C[C@H](N(C)C)[C@H]2O)[C@](C)(OC/C=C/c2ccc(-c3cccc(F)c3)s2)C[C@@H](C)C(=O)[C@H](C)[C@H]2NC(=O)O[C@@]21C [Example 72] | 1.56 (≈ 1.91 µM) | 4 (≈ 4.91 µM) | 0.2 (≈ 0.245 µM) | 0.01 (≈ 0.0123 µM) | 25 (≈ 30.7 µM) | 0.125 (≈ 0.153 µM) | 0.2 (≈ 0.245 µM) | 0.2 (≈ 0.245 µM) | 0.05 (≈ 0.0613 µM) | > 100 | 0.2 (≈ 0.245 µM) | 25 (≈ 30.7 µM) | > 100 | 0.125 (≈ 0.153 µM) | 1.56 (≈ 1.91 µM) | > 100 | 0.05 (≈ 0.0613 µM) | ≤ 0.005 | 0.39 (≈ 0.479 µM) | 0.2 (≈ 0.245 µM) | MIC [21]: 0.02 µg/mL (≈ 0.0245 µM); MIC [23]: 0.39 µg/mL (≈ 0.479 µM); MIC [24]: 1 µg/mL (≈ 1.23 µM); MIC [25]: 0.2 µg/mL (≈ 0.245 µM); MIC [26]: 8 µg/mL (≈ 9.82 µM); MIC [27]: 12.5 µg/mL (≈ 15.3 µM)
